Experimental findings from PMC11946789, “Two Amino Acid Substitutions Improve the Pharmacological Profile of the Snake Venom Peptide Mambalgin” (Toxins, 2025) are described below.

The target of test [1] is T1, homomeric rASIC1a (rat ASIC1a) (Rattus norvegicus, UniProt P55926).
T1 construct: expressed in transfected cells; host or cells: Xenopus laevis oocytes, mRNA microinjected
T1 sequence (P55926 1-526): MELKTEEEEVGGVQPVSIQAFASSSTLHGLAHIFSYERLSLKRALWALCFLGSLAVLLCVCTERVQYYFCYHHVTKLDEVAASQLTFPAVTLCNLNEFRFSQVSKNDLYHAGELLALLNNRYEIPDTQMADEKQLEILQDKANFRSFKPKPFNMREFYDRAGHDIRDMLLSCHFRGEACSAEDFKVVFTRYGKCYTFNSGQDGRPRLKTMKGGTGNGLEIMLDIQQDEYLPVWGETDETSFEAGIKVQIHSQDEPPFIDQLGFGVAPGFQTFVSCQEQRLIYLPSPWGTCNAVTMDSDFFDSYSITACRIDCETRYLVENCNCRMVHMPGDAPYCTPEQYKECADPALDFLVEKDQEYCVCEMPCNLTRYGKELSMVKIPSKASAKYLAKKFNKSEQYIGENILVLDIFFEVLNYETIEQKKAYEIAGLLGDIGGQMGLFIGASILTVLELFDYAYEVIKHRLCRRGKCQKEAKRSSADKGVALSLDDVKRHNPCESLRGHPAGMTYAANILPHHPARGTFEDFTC
Put plainly: TEVC recordings, homomeric rASIC1a. The format is cell-based. The following applies: for increase in desensitization rate of rASIC1a: pH 5.5-induced currents, 1 µM peptide, decay constant τdes, single exponential fit, 8 to 17 cells; for Emax: pH stimulus 5.5, inhibition not complete, read-out: maximum effect (inhibition); for IC50: peptide applied 30 s before activation, Xenopus laevis oocytes, mean ± S.E.M., n = 6, read-out: half-maximal inhibitory concentration (IC50). The method, then: The functional activity of Mamb-AL and its comparison with wild-type Mamb were assessed using two-electrode voltage clamp (TEVC) recordings in Xenopus laevis oocytes heterologously expressing rASIC1a.
Figure 3 The inhibitory effect of Mamb-AL on rASIC1a exceeds that of Mamb. (A,C) Representative current traces showing the effects of various concentrations of Mamb (left panels) and Mamb-AL (right panels) on rASIC1a at pH stimuli of 5.5 (A) and 6.7 (C). Currents were induced by pH stimuli after a conditioning pH of 7.4, with peptides applied for 30 s prior to channel activation. The holding potential (Vh) was set to −50 mV, and the interval between applications varied from 1 to 2 min. (B,D) Dose–response curves for the inhibitory effects of Mamb and Mamb-AL on rASIC1a at pH stimuli of 5.5 (B) and 6.7 (D). Each data point represents measurements from six cells. (E) Bar plot showing statistical analysis of IC50 values calculated from the dose–response fits for the peptides’ inhibitory effects on individual cells (n = 6). **** p< 0.001; one-way ANOVA followed by Dunnett’s post hoc test. (F) Statistical analysis of the effects of 1 µM peptide concentration on the decay constant (τdes) at a pH stimulus of 5.5. Each data point represents data from 8 to 17 cells. * p< 0.05, **** p< 0.001 compared with control, paired t-test; & p< 0.05 comparing Mamb and Mamb-AL, unpaired t-test. Data are presented as mean ± S.E.M.
Female X.laevis frogs were anesthetized with 0.17% ethyl 3-amino-benzoate methane sulfonate (MS222). A small ovarian section was surgically removed via an abdominal incision and placed in ND96 medium (96 mM NaCl, 2 mM KCl, 1.8 mM CaCl2, 1 mM MgCl2, and 5 mM HEPES, pH 7.4, adjusted with NaOH). […] Each animal underwent surgeries at intervals of no less than three months. Connective tissue and follicular sheaths were removed by incubating ovarian tissue in calcium-free ND96 medium containing collagenase (1 mg/mL) for 2 h at 21 °C. Healthy, mature stage IV and V oocytes were selected and stored in ND96 medium. PCi plasmids encoding rat ASIC1a, ASIC1b, or ASIC3 served as templates for synthesizing the corresponding messenger RNAs (mRNAs), which were then microinjected into oocytes (0.2–10 ng per oocyte) using a Nanolitre 2000 microinjection system (World Precision Instruments, Sarasota, FL, USA) 16–18 h after oocyte isolation. Injected oocytes were incubated in ND96 medium supplemented with penicillin and gentamicin (50 µg/mL each) at 18 °C for 2–3 days, followed by storage at 14 °C for up to 7 days.
(§1) Whole-cell ASIC currents were measured using the two-electrode voltage clamp (TEVC) method with a GeneClamp 500 amplifier (Axon Instruments, Union City, NJ, USA). The holding potential maintained at –50 mV. Glass microelectrodes (0.5–2.5 MΩ) were filled with 3 M KCl solution, and ND96 (pH 7.4) was used as the external bath solution. ASIC currents were activated by rapidly switching the external solution from ND96 to either ND96 containing 10 mM MOPS (pH 6.7) or ND96 containing 10 mM MES (pH 5.5). Solution exchange was controlled using a custom-built computer-driven valve system. Data were filtered at 10 Hz and digitized at 100 Hz using an L780M ADC (LCard, Moscow, Russia). Peptides Mamb and Mamb-AL were applied for 30 s at pH 7.4 prior to acid stimulation of the channels.
(§2) Electrophysiological and behavioral data were analyzed using OriginPro 8.6.0 (OriginLab, Washington, DC, USA). […] The rate of current decay was fitted using a single exponential decay function: F(x) = A*eˆ(−x/τdes) + A0, where A0 is the minimal current response and τdes is the decay constant. Statistical significance between the Mamb and Mamb-AL groups was determined using an unpaired t-test. Data are presented as mean ± SEM.

The test system of a further test is ASIC. As to the kind of experiment: TEVC recordings, ASIC1-containing channel not specified. It is filed as cell-based, rat. The note with it: channel and pH not given; for Hill coefficient: Hill equation fit. Here is the method:
as §1, §2

Where two headings read alike, the source gives them in different places. Bridges are numbered along the chain shown (N, C = ends). Where no end group is shown, it is not given here.

With “LKCFQHGKVVTCHRDMKFCYHNTGMPFRNLKLILQGCSSSCSETENNKCCSTDRCNK (disulfide 3-19, 12-37, 41-49, 50-55 (inferred)) [Mamb]”, in test [1], the “increase in desensitization rate of rASIC1a” value is 24% and the Emax was roughly 90%. Also, the Hill coefficient in the test on ASIC was 1.54 ± 0.03.
As for “LKCYQHGKVVTCHRDAKFCYHNTGLPFRNLKLILQGCSSSCSETENNKCCSTDRCNK (disulfide 3-19, 12-37, 41-49, 50-55 (inferred)) [Mamb-AL]”, the “greater inhibition of homomeric ASIC1a channels” value in test [1] (compared with Mamb, pH not stated) is reported as “three-fold”. In test [1], the “increase in desensitization rate of rASIC1a” value is reported as 45% and the Emax was roughly 90%. Further, the “Mamb-AL outperformed Mamb (inhibition of rASIC1a)” value in test [1] (pH 6.7, relative to Mamb) is listed as “more than threefold”. Further, in test [1] (pH stimulus 5.5, conditioning pH 7.4, Vh −50 mV), the IC50 is 62 ± 9 nM. Further, in test [1] (pH stimulus 6.7), the complete inhibition worked out at 100%. The IC50 in test [1] (pH stimulus 6.7, conditioning pH 7.4, Vh −50 mV) was 25 ± 3 nM. The same sequence registered a Hill coefficient in the test with ASIC of 1.4 ± 0.1. Further, the “maximum inhibition (in words)” value in the test on ASIC (compared with wild-type peptide) was “unable to fully block channel activity, leading to a reduced maximum inhibition rate”.

One may read the Hill coefficient as a measure of the steepness of the concentration-response curve.
